According to ChEMBL document CHEMBL5143597, “Design and synthesis of novel spirocyclic carboxylic acids as potent and orally bioavailable DGAT1 inhibitors and their biological evaluation” (Bioorg Med Chem Lett, 2022):

What was measured:
[1] = target: T1, Diacylglycerol O-acyltransferase 1 (Homo sapiens, UniProt O75907); assay: Inhibition of human DGAT1 in serum starved HEK293 cells assessed as inhibition of triglyceride synthesis incubated for 20 mins followed by 13C-addition of 13C-oleic acid pre-complexed with BSA for 120 mins by LC-MS-based mass spectrophotometric analysis; assay type: cell-based
T1 sequence (O75907 whole entry): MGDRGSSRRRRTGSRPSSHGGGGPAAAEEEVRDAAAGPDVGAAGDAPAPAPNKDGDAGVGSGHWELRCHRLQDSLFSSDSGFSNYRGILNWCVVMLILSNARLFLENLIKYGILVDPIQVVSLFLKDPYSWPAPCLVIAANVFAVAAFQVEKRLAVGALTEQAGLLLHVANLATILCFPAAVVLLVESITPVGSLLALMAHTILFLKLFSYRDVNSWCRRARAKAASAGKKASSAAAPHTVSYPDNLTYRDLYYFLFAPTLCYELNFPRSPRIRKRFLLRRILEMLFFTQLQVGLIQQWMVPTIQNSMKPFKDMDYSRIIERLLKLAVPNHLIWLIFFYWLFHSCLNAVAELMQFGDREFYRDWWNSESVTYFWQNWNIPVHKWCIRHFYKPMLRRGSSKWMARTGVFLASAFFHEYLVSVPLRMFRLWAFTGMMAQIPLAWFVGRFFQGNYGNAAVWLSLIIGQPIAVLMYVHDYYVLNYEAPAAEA

[2] = Metabolic stability in rat liver microsomes assessed as parent compound remaining at 1 uM and measured at 30 mins by LC-MS/MS analysis; assay type: ADME, Microsome; details: read-out: Stability
[3] = Metabolic stability in mouse liver microsomes assessed as parent compound remaining at 1 uM and measured at 30 mins by LC-MS/MS analysis; assay type: ADME, Microsome; details: read-out: Stability
[4] = Metabolic stability in human liver microsomes assessed as parent compound remaining at 1 uM and measured at 30 mins by LC-MS/MS analysis; assay type: ADME, Microsome; details: read-out: Stability
CYP2D6 = CYP2D6 (Homo sapiens, UniProt P10635); assay: Inhibition of recombinant human CYP2D6 at 25 uM by fluorescence plate reader analysis; assay type: ADME
Chain of CYP2D6 (P10635 whole entry): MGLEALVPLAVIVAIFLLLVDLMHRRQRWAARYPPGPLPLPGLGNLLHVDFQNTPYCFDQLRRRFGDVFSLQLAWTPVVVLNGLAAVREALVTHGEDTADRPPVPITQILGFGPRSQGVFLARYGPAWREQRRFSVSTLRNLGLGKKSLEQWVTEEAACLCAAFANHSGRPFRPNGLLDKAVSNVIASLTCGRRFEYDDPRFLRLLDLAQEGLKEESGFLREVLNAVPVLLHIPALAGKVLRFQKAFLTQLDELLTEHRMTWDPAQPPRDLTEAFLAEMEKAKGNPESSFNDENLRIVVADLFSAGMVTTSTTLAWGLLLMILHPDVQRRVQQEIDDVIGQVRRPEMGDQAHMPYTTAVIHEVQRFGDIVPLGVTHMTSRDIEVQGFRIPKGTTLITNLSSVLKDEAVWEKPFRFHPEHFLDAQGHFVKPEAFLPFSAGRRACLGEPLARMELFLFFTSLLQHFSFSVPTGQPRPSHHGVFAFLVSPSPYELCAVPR

hERG (KCNH2) = hERG (KCNH2) (Homo sapiens, UniProt Q12809); assay: Displacement of [3H]astemizole from human ERG expressed in HEK293 cell membrane at 30 uM for 2 hrs by Radiometric displacement assay; assay type: toxicity; details: HEK293 cell membranes that express hERG, probe [3H]astemizole
Chain of hERG (KCNH2) (Q12809 whole entry): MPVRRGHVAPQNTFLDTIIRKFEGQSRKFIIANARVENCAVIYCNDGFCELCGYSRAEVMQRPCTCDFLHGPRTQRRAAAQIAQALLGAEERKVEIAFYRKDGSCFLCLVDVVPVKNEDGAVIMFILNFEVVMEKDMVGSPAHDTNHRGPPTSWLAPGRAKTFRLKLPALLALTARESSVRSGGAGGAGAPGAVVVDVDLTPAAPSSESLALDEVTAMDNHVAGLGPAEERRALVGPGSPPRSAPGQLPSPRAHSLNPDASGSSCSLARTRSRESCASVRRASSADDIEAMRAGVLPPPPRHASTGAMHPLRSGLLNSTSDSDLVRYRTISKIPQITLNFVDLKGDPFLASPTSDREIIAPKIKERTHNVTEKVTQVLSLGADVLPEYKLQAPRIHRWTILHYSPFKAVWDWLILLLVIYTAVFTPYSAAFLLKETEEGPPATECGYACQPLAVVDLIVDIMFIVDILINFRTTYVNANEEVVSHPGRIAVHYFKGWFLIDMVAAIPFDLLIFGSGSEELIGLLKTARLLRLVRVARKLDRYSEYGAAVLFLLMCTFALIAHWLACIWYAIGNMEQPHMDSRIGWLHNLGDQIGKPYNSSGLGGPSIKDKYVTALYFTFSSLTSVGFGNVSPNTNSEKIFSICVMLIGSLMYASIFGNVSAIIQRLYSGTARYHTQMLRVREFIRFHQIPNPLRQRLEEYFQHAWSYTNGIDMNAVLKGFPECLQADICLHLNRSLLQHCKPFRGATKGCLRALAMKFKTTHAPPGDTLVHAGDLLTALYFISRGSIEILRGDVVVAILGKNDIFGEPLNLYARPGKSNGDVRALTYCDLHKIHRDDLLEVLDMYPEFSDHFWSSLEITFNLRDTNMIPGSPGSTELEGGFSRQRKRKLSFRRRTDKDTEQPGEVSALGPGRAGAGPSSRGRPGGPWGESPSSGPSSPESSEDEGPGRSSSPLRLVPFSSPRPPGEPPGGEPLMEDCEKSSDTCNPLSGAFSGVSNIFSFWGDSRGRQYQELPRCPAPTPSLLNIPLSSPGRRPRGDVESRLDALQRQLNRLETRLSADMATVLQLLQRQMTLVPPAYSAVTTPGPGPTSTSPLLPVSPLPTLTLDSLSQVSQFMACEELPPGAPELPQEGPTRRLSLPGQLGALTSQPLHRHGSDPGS

[5] = Plasma protein binding in rat; assay type: ADME, cell-free; details: read-out: PPB
[6] = Plasma protein binding in mouse; assay type: ADME, cell-free; details: read-out: PPB (converted)
[7] = Clearance in C57BL/6 mouse at 3 mg/kg, iv or 10 mg/kg, po and measured up to 24 hrs by LC-MS/MS analysis; assay type: ADME, organism-based; details: in vivo
[8] = Apparent permeability across apical to basolateral side in MDCK cells at 2.5 uM for 90 mins; assay type: ADME, cell-based, Canis lupus familiaris; details: dog
[9] = Volume of distribution at steady state in C57BL/6 mouse at 3 mg/kg, iv or 10 mg/kg, po and measured up to 24 hrs by LC-MS/MS analysis; assay type: ADME, organism-based; details: in vivo, read-out: Vdss
[10] = AUC in C57BL/6 mouse at 3 mg/kg, iv or 10 mg/kg, po and measured up to 24 hrs by LC-MS/MS analysis; assay type: ADME, organism-based; design: time < 24 hrs, dose 3 mg/kg, route iv; details: in vivo
[11] = Cmax in C57BL/6 mouse at 3 mg/kg, iv or 10 mg/kg, po and measured up to 24 hrs by LC-MS/MS analysis; assay type: ADME, organism-based; design: dose 3 mg/kg, time < 24 hrs, route iv; details: in vivo
[12] = Tmax in C57BL/6 mouse at 3 mg/kg, iv or 10 mg/kg, po and measured up to 24 hrs by LC-MS/MS analysis; assay type: ADME, organism-based; details: in vivo
[13] = Half life in C57BL/6 mouse at 3 mg/kg, iv or 10 mg/kg, po and measured up to 24 hrs by LC-MS/MS analysis; assay type: ADME, organism-based; details: in vivo
[14] = Oral bioavailability in C57BL/6 mouse 10 mg/kg or 3 mg/kg, iv and measured up to 24 hrs by LC-MS/MS analysis; assay type: ADME, organism-based; details: in vivo
[15] = Volume of distribution at steady state in Wistar rat at 3 mg/kg, iv or 10 mg/kg, po and measured up to 24 hrs by LC-MS/MS analysis; assay type: ADME, organism-based; details: in vivo, read-out: Vdss
[16] = Clearance in Wistar rat at 3 mg/kg, iv or 10 mg/kg, po and measured up to 24 hrs by LC-MS/MS analysis; assay type: ADME, organism-based; details: in vivo
[17] = AUC in Wistar rat at 3 mg/kg, iv or 10 mg/kg, po and measured up to 24 hrs by LC-MS/MS analysis; assay type: ADME, organism-based; design: dose 3 mg/kg, time < 24 hrs, route iv; details: in vivo
[18] = Cmax in Wistar rat at 3 mg/kg, iv or 10 mg/kg, po and measured up to 24 hrs by LC-MS/MS analysis; assay type: ADME, organism-based; design: dose 3 mg/kg, time < 24 hrs, route iv; details: in vivo
[19] = Tmax in Wistar rat at 3 mg/kg, iv or 10 mg/kg, po and measured up to 24 hrs by LC-MS/MS analysis; assay type: ADME, organism-based; details: in vivo
[20] = Half life in Wistar rat at 3 mg/kg, iv or 10 mg/kg, po and measured up to 24 hrs by LC-MS/MS analysis; assay type: ADME, organism-based; details: in vivo
[21] = Oral bioavailability in Wistar rat at 10 mg/kg or 3 mg/kg, iv and measured up to 24 hrs by LC-MS/MS analysis; assay type: ADME, organism-based; details: in vivo
[22] = Drug distribution in C57BL/6 mouse plasma 10 mg/kg, po and measured at 1 hrs post dose by LC-MS/MS analysis; assay type: ADME, organism-based
[23] = Drug distribution in C57BL/6 mouse plasma 10 mg/kg, po and measured at 2 hrs post dose by LC-MS/MS analysis; assay type: ADME, organism-based
[24] = Drug distribution in C57BL/6 mouse plasma 10 mg/kg, po and measured at 8 hrs post dose by LC-MS/MS analysis; assay type: ADME, organism-based
[25] = Drug distribution in C57BL/6 mouse adipose tissue 10 mg/kg, po and measured at 1 hrs post dose by LC-MS/MS analysis; assay type: ADME, organism-based; details: read-out: Ct
[26] = Drug distribution in C57BL/6 mouse adipose tissue 10 mg/kg, po and measured at 2 hrs post dose by LC-MS/MS analysis; assay type: ADME, organism-based; details: read-out: Ct
[27] = Drug distribution in C57BL/6 mouse adipose tissue 10 mg/kg, po and measured at 8 hrs post dose by LC-MS/MS analysis; assay type: ADME, organism-based; details: read-out: Ct
[28] = Drug distribution in C57BL/6 mouse liver 10 mg/kg, po and measured at 1 hrs post dose by LC-MS/MS analysis; assay type: ADME, organism-based; details: read-out: Ct
[29] = Drug distribution in C57BL/6 mouse liver 10 mg/kg, po and measured at 2 hrs post dose by LC-MS/MS analysis; assay type: ADME, organism-based; details: read-out: Ct
[30] = Drug distribution in C57BL/6 mouse liver 10 mg/kg, po and measured at 8 hrs post dose by LC-MS/MS analysis; assay type: ADME, organism-based; details: read-out: Ct
[31] = Drug distribution in C57BL/6 mouse skeletal muscle 10 mg/kg, po and measured at 1 hrs post dose by LC-MS/MS analysis; assay type: ADME, organism-based, Skeletal muscle tissue; details: read-out: Ct
[32] = Drug distribution in C57BL/6 mouse skeletal muscle 10 mg/kg, po and measured at 2 hrs post dose by LC-MS/MS analysis; assay type: ADME, organism-based, Skeletal muscle tissue; details: read-out: Ct
[33] = Drug distribution in C57BL/6 mouse skeletal muscle 10 mg/kg, po and measured at 8 hrs post dose by LC-MS/MS analysis; assay type: ADME, organism-based, Skeletal muscle tissue; details: read-out: Ct
[34] = Drug distribution in C57BL/6 mouse brain 10 mg/kg, po and measured at 1 hrs post dose by LC-MS/MS analysis; assay type: ADME, organism-based; details: read-out: Ct
CYP1A2 = target: T2, CYP1A2 (Homo sapiens, UniProt P05177); assay: Inhibition of recombinant human CYP1A2 at 25 uM by fluorescence plate reader analysis; assay type: ADME
T2 sequence (P05177 whole entry): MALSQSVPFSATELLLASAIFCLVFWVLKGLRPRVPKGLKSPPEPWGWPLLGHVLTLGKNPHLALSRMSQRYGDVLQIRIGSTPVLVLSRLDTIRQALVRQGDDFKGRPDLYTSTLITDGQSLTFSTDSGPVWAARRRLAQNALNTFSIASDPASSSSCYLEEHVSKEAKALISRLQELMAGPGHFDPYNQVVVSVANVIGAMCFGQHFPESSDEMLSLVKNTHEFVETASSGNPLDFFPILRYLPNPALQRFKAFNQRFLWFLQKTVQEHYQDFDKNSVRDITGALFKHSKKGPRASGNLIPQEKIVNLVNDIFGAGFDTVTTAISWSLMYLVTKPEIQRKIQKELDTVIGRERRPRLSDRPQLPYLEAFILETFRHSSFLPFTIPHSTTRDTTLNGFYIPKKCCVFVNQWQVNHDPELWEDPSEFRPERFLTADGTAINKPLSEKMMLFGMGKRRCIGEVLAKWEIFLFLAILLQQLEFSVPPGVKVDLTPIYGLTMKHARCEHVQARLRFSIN

CYP3A4 = CYP3A4 (Homo sapiens, UniProt P08684); assay: Inhibition of recombinant human CYP3A4 at 25 uM by fluorescence plate reader analysis; assay type: ADME
Chain of CYP3A4 (P08684 whole entry): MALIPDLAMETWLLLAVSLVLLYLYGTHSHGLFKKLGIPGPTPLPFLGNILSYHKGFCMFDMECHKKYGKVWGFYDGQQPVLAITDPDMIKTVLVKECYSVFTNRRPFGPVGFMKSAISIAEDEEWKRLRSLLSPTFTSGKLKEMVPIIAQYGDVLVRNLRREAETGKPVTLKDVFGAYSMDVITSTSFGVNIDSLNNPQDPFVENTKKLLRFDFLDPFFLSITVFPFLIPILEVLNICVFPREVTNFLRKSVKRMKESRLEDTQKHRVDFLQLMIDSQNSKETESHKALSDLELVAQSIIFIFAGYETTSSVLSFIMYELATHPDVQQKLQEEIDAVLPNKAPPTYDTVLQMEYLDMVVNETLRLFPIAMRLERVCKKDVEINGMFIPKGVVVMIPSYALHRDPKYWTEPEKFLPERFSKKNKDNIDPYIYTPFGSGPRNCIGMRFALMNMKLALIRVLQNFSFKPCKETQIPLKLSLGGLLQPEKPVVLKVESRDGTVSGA

[35] = Solubility of compound in PBS at pH 2 incubated for 4 hrs under shaking condition by UV absorbance based analysis; assay type: physicochemical
[36] = Solubility of compound in PBS at pH 4 incubated for 4 hrs under shaking condition by UV absorbance based analysis; assay type: physicochemical
[37] = Solubility of compound in PBS at pH 7.4 incubated for 4 hrs under shaking condition by UV absorbance based analysis; assay type: physicochemical
[38] = Solubility of compound in PBS at pH 9 incubated for 4 hrs under shaking condition by UV absorbance based analysis; assay type: physicochemical
[39] = target: 2-acylglycerol O-acyltransferase 2 (Homo sapiens) (UniProt Q3SYC2); assay: Inhibition of recombinant human MGAT2 expressed in Sf9 cell membrane assessed as inhibition of triglyceride synthesis at 10 uM for 1 hr by LC-MS-based mass spectrophotometric analysis
Chain of 2-acylglycerol O-acyltransferase 2 (Homo sapiens) (Q3SYC2 whole entry, looked up): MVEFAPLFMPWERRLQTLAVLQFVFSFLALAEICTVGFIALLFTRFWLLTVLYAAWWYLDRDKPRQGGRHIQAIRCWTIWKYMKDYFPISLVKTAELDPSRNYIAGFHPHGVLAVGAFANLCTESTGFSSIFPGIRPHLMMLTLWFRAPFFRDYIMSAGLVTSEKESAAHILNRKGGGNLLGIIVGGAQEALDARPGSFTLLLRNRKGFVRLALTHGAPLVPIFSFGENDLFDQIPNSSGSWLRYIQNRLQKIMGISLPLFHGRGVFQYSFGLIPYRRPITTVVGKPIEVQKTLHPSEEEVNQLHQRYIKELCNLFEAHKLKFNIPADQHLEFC

[40] = Inhibition of human […] in HepG2 cells assessed as inhibition of triglyceride synthesis at 1 uM incubated for 1 hrs followed by 13C-addition of 13C-oleic acid pre-complexed with fatty acid free BSA for 6 hrs by LC/MS/MS analysis; details: time 7.0 hrs
[41] = Inhibition of human […] in HepG2 cells assessed as inhibition of triglyceride synthesis at 100 nM incubated for 1 hrs followed by 13C-addition of 13C-oleic acid pre-complexed with fatty acid free BSA for 6 hrs by LC/MS/MS analysis; details: time 7.0 hrs
[42] = Inhibition of human […] in HepG2 cells assessed as inhibition of triglyceride synthesis at 300 nM incubated for 1 hrs followed by 13C-addition of 13C-oleic acid pre-complexed with fatty acid free BSA for 6 hrs by LC/MS/MS analysis; details: time 7.0 hrs

O=C(O)C[C@H]1CC[C@H](c2ccc(-c3ccc(Nc4ccc(C(F)(F)F)nc4)cn3)cc2)CC1 [PRADIGASTAT]
IC50 [1]: 66 nM

O=C(Nc1ccc(C2CCC3(CC2)CC(C(=O)O)C3)cc1)c1nnc(Nc2ccc(F)c(F)c2)o1 (configuration not stated) [listing 1 of 2 here]
remaining at 0.5 h, 1 µM [2]: 100%
remaining at 0.5 h, 1 µM [3]: 96%
remaining at 0.5 h, 1 µM [4]: 95%
inhibition at 25 µM (CYP2D6): 10%
inhibition at 2 h, 30 µM (hERG (KCNH2)): 16%
fraction unbound [5]: 0.01
fraction unbound [6]: 0.02
clearance [7]: 34 mL/min/kg
Papp A→B at 1.5 h, 2.5 µM [8]: 4.9 ×10⁻⁶ cm/s
Vd [9]: 4.4 L/kg
AUC at 24 h [10]: 2.8 µM·h
Cmax [11]: 1400 nM
Tmax [12]: 0.25 h
half-life [13]: 3.6 h
bioavailability [14]: 30%
Vd [15]: 0.53 L/kg
clearance [16]: 6.2 mL/min/kg
AUC at 24 h [17]: 17 µM·h
Cmax [18]: 14000 nM
Tmax [19]: 1 h
half-life [20]: 3.6 h
bioavailability [21]: 100%
concentration at 1 h [22]: 5900 nM
concentration at 2 h [23]: 1660 nM
concentration at 8 h [24]: 360 nM
concentration at 1 h [25]: 470 nM
concentration at 2 h [26]: 350 nM
concentration at 8 h [27]: 130 nM
concentration at 1 h [28]: 142000 nM
concentration at 2 h [29]: 71600 nM
concentration at 8 h [30]: 17800 nM
concentration at 1 h [31]: 160 nM
concentration at 2 h [32]: 60 nM
concentration at 8 h [33]: 30 nM
concentration at 1 h [34]: 20 nM

O=C([O-])CC1CCC2(CC1)CCC(c1ccc(NC(=O)c3nnc(Nc4ccc(F)c(F)c4)o3)cn1)CC2.[Na+] (configuration not stated)
inhibition at 25 µM (CYP1A2): 13%
inhibition at 25 µM (CYP3A4): 17%
inhibition at 25 µM (CYP2D6): 5%
solubility at 4 h [35]: < 6 µM
solubility at 4 h [36]: < 6 µM
solubility at 4 h [37]: < 6 µM
solubility at 4 h [38]: 9 µM

O=C(Nc1ccc(C2CCC3(CC2)CC(C(=O)O)C3)cc1)c1nnc(Nc2ccc(F)c(F)c2)o1 (configuration not stated) [listing 2 of 2 here]
inhibition [39]: 16%
inhibition [40]: 96%
inhibition [41]: 88%
inhibition [42]: 94%
